Data: the SangsterLogP compilation

SMILES | logP
Cc1ccc2cccc(C)c2c1 | 4.19
Cc1cc2c(C)ccc(C)c2cc1C | 4.74
Cc1ccc(C)c2c(C)cccc12 | 4.48
Cc1cccc2c(C)cccc12 | 4.22
Cc1cc(C)c2ccccc2c1C | 4.49
Cc1ccc(C)c2ccccc12 | 4.22
Cc1ccc2cc(C)ccc2c1 | 4.39
Cc1cc(C)c2c(C)cccc2c1 | 4.52
Cc1ccc2ccccc2c1 | 3.96
Cc1cc(C)c2cc(C)ccc2c1 | 4.38
Cc1ccc2ccc(C)cc2c1 | 4.37
Cc1ccc2cc(C)c(C)cc2c1 | 4.7
Cc1ccc2c(C)ccc(C)c2c1 | 4.55
Cc1ccc2c(C)cccc2c1 | 4.27
Cc1ccc2c(C)c(C)ccc2c1C | 4.95
